Reference: the NIST ThermoML archive (doi:10.1016/j.fluid.2011.08.011)
Values joined by “and” are separate entries in the source; they are usually repeats but may differ in a detail not shown here. Equal values may be shown once.

What was measured:
[1] = Solid-liquid equilibrium temperature; details: 101.3 kPa; Crystal; DTA
[2] = Molar enthalpy of transition or fusion; details: Crystal; DSC
[3] = molar heat capacity at constant pressure; details: 101.33 kPa, Liquid, Small sample (50 mg) DSC
[4] = Liquid, Closed cell (Static) method

CC(C)(C)[O-].CC(C)(C)[O-].CC(C)(C)[O-].CC(C)(C)[O-].[Hf+4] [hafnium(IV) 2-methylpropan-2-olate]
Details | Molar enthalpy of transition or fusion [kcal/mol] | Solid-liquid equilibrium temperature
[1] | – | 271.9 K and 271.8 K and 271.7 K
[2] | 7.72 | –

Details | molar heat capacity at constant pressure | vapor or sublimation pressure
[3], 293.83 K | 596.3 J/K/mol and 598.5 J/K/mol | –
[3], 298.94 K | 598.9 J/K/mol and 598.2 J/K/mol | –
[3], 304.04 K | 601.3 J/K/mol and 601.8 J/K/mol | –
[3], 309.15 K | 604.8 J/K/mol and 600.7 J/K/mol | –
[3], 314.25 K | 604.8 J/K/mol and 602.9 J/K/mol | –
[3], 319.35 K | 612.6 J/K/mol and 614.6 J/K/mol | –
[3], 324.46 K | 614.2 J/K/mol and 613.8 J/K/mol | –
[3], 329.56 K | 616.6 J/K/mol and 621.7 J/K/mol | –
[3], 334.66 K | 626.3 J/K/mol and 625.9 J/K/mol | –
[3], 339.77 K | 631.5 J/K/mol and 628.5 J/K/mol | –
[3], 344.88 K | 635.3 J/K/mol and 638.1 J/K/mol | –
[3], 349.98 K | 635.5 J/K/mol and 635.9 J/K/mol | –
[4], 280.65 K | – | 0.00169 kPa and 0.00172 kPa and 0.00174 kPa
[4], 283.15 K | – | 0.00214 kPa and 0.00217 kPa and 0.00219 kPa
[4], 285.65 K | – | 0.00279 kPa and 0.00282 kPa and 0.00284 kPa
[4], 288.15 K | – | 0.00362 kPa and 0.00364 kPa and 0.00361 kPa
[4], 290.65 K | – | 0.00443 kPa and 0.00442 kPa and 0.00444 kPa
[4], 293.15 K | – | 0.00563 kPa and 0.00565 kPa and 0.00564 kPa
[4], 295.65 K | – | 0.00722 kPa and 0.0072 kPa
[4], 298.15 K | – | 0.00874 kPa and 0.00873 kPa
[4], 300.65 K | – | 0.01111 kPa and 0.01107 kPa and 0.01104 kPa
[4], 303.15 K | – | 0.01348 kPa and 0.01346 kPa
[4], 305.67 K | – | 0.01669 kPa and 0.01664 kPa and 0.0166 kPa
[4], 308.17 K | – | 0.02071 kPa and 0.02061 kPa and 0.02059 kPa
